The source of these data is patent US20140023611A1 (priority 2010, published 2014).

One test has as its target T1, rat NaP2b (SLC34A2) (Rattus norvegicus, UniProt Q9JJ09).
T1 construct: host or cells: HEK293
T1 sequence (Q9JJ09 1-695): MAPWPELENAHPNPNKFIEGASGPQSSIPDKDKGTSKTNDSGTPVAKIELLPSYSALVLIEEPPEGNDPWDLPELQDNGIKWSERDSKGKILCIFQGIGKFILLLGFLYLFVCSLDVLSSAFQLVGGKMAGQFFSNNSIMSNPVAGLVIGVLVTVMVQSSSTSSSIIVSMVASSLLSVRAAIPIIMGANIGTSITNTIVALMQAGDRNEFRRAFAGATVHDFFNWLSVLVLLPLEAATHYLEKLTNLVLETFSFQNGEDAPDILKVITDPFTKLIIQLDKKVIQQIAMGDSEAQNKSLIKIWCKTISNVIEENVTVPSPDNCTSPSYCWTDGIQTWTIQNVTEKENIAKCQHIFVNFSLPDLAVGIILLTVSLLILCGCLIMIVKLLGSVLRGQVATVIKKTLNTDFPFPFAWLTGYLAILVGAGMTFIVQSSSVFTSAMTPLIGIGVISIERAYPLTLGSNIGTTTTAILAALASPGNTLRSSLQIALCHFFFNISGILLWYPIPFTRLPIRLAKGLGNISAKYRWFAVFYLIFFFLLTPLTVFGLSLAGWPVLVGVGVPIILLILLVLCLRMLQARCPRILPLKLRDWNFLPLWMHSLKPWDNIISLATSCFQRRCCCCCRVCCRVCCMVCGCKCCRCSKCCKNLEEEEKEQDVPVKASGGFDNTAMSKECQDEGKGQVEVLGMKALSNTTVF
The test is described as follows: Inhibition of NaP2b-mediated Pi (33P) uptake in transfected HEK293 cells, rat NaP2b. In kind it is cell-based. The following applies: 33P Pi uptake, 0.1 mM phosphate, value given as pIC50 range. Summed up: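 The cells transiently expressed NaP2b after Lipofectamine transfection. Each compound was run in duplicate over twelve concentrations, 0.1 nM–30 uM.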

A further test has as its target T2, human NaP2b (SLC34A2) (Homo sapiens, UniProt O95436).
T2 construct: host or cells: HEK293
T2 sequence (O95436 1-690): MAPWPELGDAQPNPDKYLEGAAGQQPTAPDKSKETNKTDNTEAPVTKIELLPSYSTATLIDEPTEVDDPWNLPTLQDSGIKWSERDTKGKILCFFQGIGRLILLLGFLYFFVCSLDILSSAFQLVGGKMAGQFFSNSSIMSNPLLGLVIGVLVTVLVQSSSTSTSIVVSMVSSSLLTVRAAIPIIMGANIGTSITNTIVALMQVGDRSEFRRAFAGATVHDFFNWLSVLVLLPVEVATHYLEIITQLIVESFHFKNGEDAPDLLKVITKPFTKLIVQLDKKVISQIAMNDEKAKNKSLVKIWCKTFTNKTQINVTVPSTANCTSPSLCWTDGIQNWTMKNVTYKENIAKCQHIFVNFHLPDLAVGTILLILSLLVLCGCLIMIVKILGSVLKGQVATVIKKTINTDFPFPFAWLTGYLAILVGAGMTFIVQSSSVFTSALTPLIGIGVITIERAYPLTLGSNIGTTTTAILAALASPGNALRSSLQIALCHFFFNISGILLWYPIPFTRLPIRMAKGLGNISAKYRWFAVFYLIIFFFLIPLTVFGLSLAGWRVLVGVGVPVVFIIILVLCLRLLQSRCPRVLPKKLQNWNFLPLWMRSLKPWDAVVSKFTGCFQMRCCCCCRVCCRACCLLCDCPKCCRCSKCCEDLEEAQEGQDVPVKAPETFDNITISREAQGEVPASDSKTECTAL
The test is described as follows: Inhibition of NaP2b-mediated Pi (33P) uptake in transfected HEK293 cells, human NaP2b. In kind it is cell-based. The note with it: read-out: pIC50 range for human NaP2b (converted). A digest of the protocol:
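Uptake of 33P-phosphate (100 uM KH2PO4 carrier, sodium vs choline buffer, pH 7.4) measured after 3-30 min at room temperature, with test compound at twelve concentrations from 0.1 nM to 30 uM in duplicate. Cells were HEK293 transfected with mutated human NaP2b (Thr insertion after 37, N39D) and treated with a PiT-silencing agent. pIC50 values from scintillation counts.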

`O=C(O)CCOCCOCCOCCOCCCc1cccc(SCc2cccc(C(=O)Nc3ccc(N4CCCCC4)cc3-c3cc(C(=O)N[C@H]4CCCc5ccccc54)ccn3)c2)c1` [Example 247, 3-(2-(2-(2-(3-(3-((30S)-3-((2-(4-(((S)-1,2,3,4-tetrahydronaphthalen-1-yl)carbamoyl)pyridin-2-yl)-4-(piperidin-1-yl)phenyl)carbamoyl)benzylthio)phenyl)propoxy)ethoxy)ethoxy)ethoxy)propanoic acid]: the IC50 against rat NaP2b (SLC34A2) and at human NaP2b (SLC34A2) was 1000 to 7940 nM in each case.
Turning to `CCN(CC)c1ccc(NC(=O)c2cccc(CCCOCCOCCOCCOCCC(=O)N3CCC[C@H](C(=O)N(C)CCOCCOCCOCCOCCOCCOCCOC)C3)c2)c(-c2cc(C(=O)NCc3cccc(C(F)(F)F)c3)ccn2)c1` [Example 257, (S)-2-(2-(3-(16-(3-(2,5,8,11,14,17,20-heptaoxadocosan-22-yl(methyl)carbamoyl)piperidin-1-yl)-16-oxo-4,7,10,13-tetraoxahexadecyl)benzamido)-5-(diethylamino)phenyl)-N-(3-(trifluoromethyl)benzyl)isonicotinamide], the IC50 was 1000 to 7940 nM against rat NaP2b (SLC34A2) and below 1000 nM at human NaP2b (SLC34A2).
The like results for `CCN(CC)c1ccc(NC(=O)c2cccc(CCCOCCOCCOCCOCCC(=O)N3CCN(c4ccc(OCCOCCOCCOC)cc4)CC3)c2)c(-c2cc(C(=O)NCc3cccc(C(F)(F)F)c3)ccn2)c1` [Example 263, 2-(5-(diethylamino)-2-(3-(16-(4-(4-(2-(2-(2-methoxyethoxy)ethoxy)ethoxy)phenyl)piperazin-1-yl)-16-oxo-4,7,10,13-tetraoxahexadecyl)benzamido)phenyl)-N-(3-(trifluoromethyl)benzyl)isonicotinamide] were, in that order, 1000 to 7940 nM and below 1000 nM.
As to `CCN(CC)c1ccc(NC(=O)c2cccc(C#CCOCCOCCOCCOCCO)c2)c(-c2cc(C(=O)NCc3cccc(C(F)(F)F)c3)ccn2)c1` [Example 266, 2-(5-(diethylamino)-2-(3-(1-hydroxy-3,6,9,12-tetraoxapentadec-14-yn-15-yl)benzamido)phenyl)-N-(3-(trifluoromethyl)benzyl)isonicotinamide], the IC50 on rat NaP2b (SLC34A2) and on human NaP2b (SLC34A2) was 1000 to 7940 nM throughout.
For the compound `CCN(CC)c1ccc(NC(=O)c2cccc(CCCOCCOCCOCCOCCO)c2)c(-c2cc(C(=O)NCc3cccc(C(F)(F)F)c3)ccn2)c1` [Example 267, 2-(5-(diethylamino)-2-(3-(1-hydroxy-3,6,9,12-tetraoxapentadecan-15-yl)benzamido)phenyl)-N-(3-(trifluoromethyl)benzyl)isonicotinamide], the IC50 at rat NaP2b (SLC34A2) and at human NaP2b (SLC34A2) was below 1000 nM each time.
Consider `CCN(CC)c1ccc(NC(=O)c2cccc(C#CCOCCOCCOCCOCCOCCOCCOCCOCCOC)c2)c(-c2cc(C(=O)NCc3cccc(C(F)(F)F)c3)ccn2)c1` [Example 268, 2-(2-(3-(2,5,8,11,14,17,20,23,26-nonaoxanonacos-28-yn-29-yl)benzamido)-5-(diethylamino)phenyl)-N-(3-(trifluoromethyl)benzyl)isonicotinamide], for which the IC50 against rat NaP2b (SLC34A2) and at human NaP2b (SLC34A2) was below 1000 nM throughout.
Turning to `CCN(CC)c1ccc(NC(=O)c2cccc(CCCOCCOCCOCCOCCNC(=O)N(C)CCOCCOCCOCCOCCOCCOCCOC)c2)c(-c2cc(C(=O)NCc3cccc(C(F)(F)F)c3)ccn2)c1` [Example 273, 2-(5-(diethylamino)-2-(3-(23-methyl-24-oxo-2,5,8,11,14,17,20,28,31,34,37-undecaoxa-23,25-diazatetracontan-40-yl)benzamido)phenyl)-N-(3-(trifluoromethyl)benzyl)isonicotinamide], the IC50 against rat NaP2b (SLC34A2) and on human NaP2b (SLC34A2) was 1000 to 7940 nM in each case.
On to `CCN(CC)c1ccc(NC(=O)c2cccc(CCCOCCOCCOCCOCCNC(=O)N(CCO)CCO)c2)c(-c2cc(C(=O)NCc3cccc(C(F)(F)F)c3)ccn2)c1` [Example 274, 2-(5-(diethylamino)-2-(3-(1-hydroxy-3-(2-hydroxyethyl)-4-oxo-8,11,14,17-tetraoxa-3,5-diazaicosan-20-yl)benzamido)phenyl)-N-(3-(trifluoromethyl)benzyl)isonicotinamide], for which the IC50 at rat NaP2b (SLC34A2) and on human NaP2b (SLC34A2) was 1000 to 7940 nM throughout.
